From patent US20240182481A1 (Tango Therapeutics, Inc., priority 2021, published 2024)
Like-named read-outs stand apart in the source and are kept apart here.

How the values were obtained:
[1] = test system: MDA-MB-436 (BRCA1 mutant) cell line; assay: Viability assay in BRCA1 mutant cell line MDA-MB-436; type: cell-based; settings: BRCA1 mutant MDA-MB-436, read-out: MDA-MB-436 rel IC50
Excerpt: (§1) Table 1 also indicates IC50 values in a viability assay for a non-isogenic pair of BRCA1 mutant (column 5—MDA-MB-436) and BRCA1 WT (column 6—HCC1954) cell lines. These values indicate the effect of treatment with compound on cell survival.

[2] = test system: HCC1954 (BRCA1 WT) cell line; assay: Viability assay in BRCA1 WT cell line HCC1954; type: cell-based; settings: Homo sapiens, read-out: HCC 1954 IC50 rel IC50
Excerpt: as §1

[3] = test system: monoubiquitinated PCNA; assay: AlphaLISA assay measuring monoubiquitinated PCNA in MDA-MB-436; type: cell-based; settings: Homo sapiens, read-out: Alpha LISA IC50
Excerpt: Table 1 also indicates IC50 values for exemplary compounds in an AlphaLISA assay measuring monoubiquitinated PCNA in a BRCA1 mutant cell line (MDA-MB-436; column 7).

[4] = molecular target: USP1-UAF1 (Homo sapiens, UniProt O94782); assay: Ubiquitin Rhodamine assay for USP1-UAF1 activity; type: biochemical
Protocol: Certain compounds of the disclosure were assessed for USP1-UAF1 activity in a Ubiquitin Rhodamine assay as described in Example 135.

[5] = Homo sapiens, MDA-MB-436, viability

USP1-UAF1, sequence (O94782 whole entry): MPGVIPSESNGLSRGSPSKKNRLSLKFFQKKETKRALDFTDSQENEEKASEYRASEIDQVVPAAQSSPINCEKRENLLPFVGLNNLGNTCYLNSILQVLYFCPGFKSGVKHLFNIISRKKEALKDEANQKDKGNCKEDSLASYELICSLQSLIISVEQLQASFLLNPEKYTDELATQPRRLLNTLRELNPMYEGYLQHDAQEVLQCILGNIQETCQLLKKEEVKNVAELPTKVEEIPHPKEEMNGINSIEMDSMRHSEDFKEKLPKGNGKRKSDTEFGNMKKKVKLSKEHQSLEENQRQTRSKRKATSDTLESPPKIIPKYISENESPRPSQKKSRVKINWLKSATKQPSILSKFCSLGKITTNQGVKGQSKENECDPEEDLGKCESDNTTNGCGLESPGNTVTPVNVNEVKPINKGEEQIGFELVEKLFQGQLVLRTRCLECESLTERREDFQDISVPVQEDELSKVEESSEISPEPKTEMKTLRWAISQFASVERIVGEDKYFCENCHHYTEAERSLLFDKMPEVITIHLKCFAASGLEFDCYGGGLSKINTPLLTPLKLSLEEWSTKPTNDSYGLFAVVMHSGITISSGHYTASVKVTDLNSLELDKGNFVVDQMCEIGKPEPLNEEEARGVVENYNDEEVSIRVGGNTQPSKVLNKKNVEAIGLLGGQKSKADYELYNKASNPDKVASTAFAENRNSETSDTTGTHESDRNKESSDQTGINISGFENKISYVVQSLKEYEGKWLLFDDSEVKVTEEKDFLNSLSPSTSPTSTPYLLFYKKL
USP1-UAF1, sequence (Q8TAF3 whole entry partner): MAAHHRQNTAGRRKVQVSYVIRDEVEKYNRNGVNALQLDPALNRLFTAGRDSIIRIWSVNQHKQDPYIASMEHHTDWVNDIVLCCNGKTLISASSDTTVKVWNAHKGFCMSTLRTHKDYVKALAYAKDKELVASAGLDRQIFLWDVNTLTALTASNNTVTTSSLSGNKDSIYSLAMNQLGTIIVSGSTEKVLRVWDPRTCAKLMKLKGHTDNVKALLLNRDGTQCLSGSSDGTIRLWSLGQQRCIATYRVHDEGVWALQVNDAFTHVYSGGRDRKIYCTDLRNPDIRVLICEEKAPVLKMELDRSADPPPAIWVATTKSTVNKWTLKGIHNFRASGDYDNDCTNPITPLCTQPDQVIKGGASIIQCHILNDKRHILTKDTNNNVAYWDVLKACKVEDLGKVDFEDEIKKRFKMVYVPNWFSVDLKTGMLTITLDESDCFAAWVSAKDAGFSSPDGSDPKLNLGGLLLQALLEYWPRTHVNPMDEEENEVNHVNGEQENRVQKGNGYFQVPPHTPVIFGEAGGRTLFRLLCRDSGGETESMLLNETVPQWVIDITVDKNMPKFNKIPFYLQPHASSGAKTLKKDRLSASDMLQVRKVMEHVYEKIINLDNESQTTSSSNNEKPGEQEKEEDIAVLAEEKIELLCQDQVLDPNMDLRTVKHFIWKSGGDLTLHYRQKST

Compound: COc1ncnc(C2CC2)c1-c1ncc2c(n1)c(Sc1ccc(-c3nc(C(F)(F)F)cn3C)cc1)cn2C [Compound 166]
- IC50 [1, 5]: 0.1 to 0.25 µM
- IC50 [2]: ≥ 10 µM
- IC50 [3]: 0.25 to 10 µM
- IC50 [4]: 0.1 to 10 µM

Compound: COc1ncnc(C2CC2)c1-c1nc(C(F)(F)F)c2[nH]cc(Cc3ccc(-c4nc(C(F)(F)F)cn4C)cc3)c2n1 [Compound 121, 2-(4-cyclopropyl-6-methoxy-pyrimidin-5-yl)-7-[[4-[1-methyl-4-(trifluoromethyl)imidazol-2-yl]phenyl]methyl]-4-(trifluoromethyl)-5H-pyrrolo[3,2-d]pyrimidine]
- IC50 [1, 5]: < 0.1 µM
- IC50 [2]: ≥ 10 µM
- IC50 [3]: < 0.1 µM
- IC50 [4]: < 0.03 µM

Compound: COc1ncnc(C2CC2)c1-c1ncc2nn(C)c(Cc3ccc(-c4nc(C(F)(F)F)cn4C)cc3)c2n1 [Compound 24, 5-(4-cyclopropyl-6-methoxy-pyrimidin-5-yl)-2-methyl-3-[[4-[1-methyl-4-(trifluoromethyl)imidazol-2-yl]phenyl]methyl]pyrazolo[4,3-d]pyrimidine]
- IC50 [1, 5]: 0.25 to 10 µM
- IC50 [2]: ≥ 10 µM
- IC50 [3]: 0.1 to 0.25 µM

Compound: COc1ncnc(C(C)(C)C)c1-c1ncc2[nH]cc(Cc3ccc(-c4nc(C(F)(F)F)cn4C)cc3)c2n1 [Compound 124, 2-(4-tert-butyl-6-methoxy-pyrimidin-5-yl)-7-[[4-[1-methyl-4-(trifluoromethyl)imidazol-2-yl]phenyl]methyl]-5H-pyrrolo[3,2-d]pyrimidine]
- IC50 [1, 5]: < 0.1 µM
- IC50 [2]: ≥ 10 µM
- IC50 [3]: 0.1 to 0.25 µM
- IC50 [4]: 0.03 to 0.1 µM

Compound: COc1ncnc(C2CC2)c1-c1ncc2[nH]cc(Cc3ccc(-c4nc(C(F)(F)F)cn4C4COC4)cc3)c2n1 [Compound 154, 2-(4-cyclopropyl-6-methoxy-pyrimidin-5-yl)-7-[[4-[1-(oxetan-3-yl)-4-(trifluoromethyl)imidazol-2-yl]phenyl]methyl]-5H-pyrrolo[3,2-d]pyrimidine]
- IC50 [1, 5]: < 0.1 µM
- IC50 [2]: ≥ 10 µM
- IC50 [3]: 0.1 to 0.25 µM
- IC50 [4]: 0.03 to 0.1 µM

Compound: COc1ncnc(C2CC2)c1-c1ncc2[nH]nc(Cc3ccc(-c4nc(C(F)(F)F)cn4C4COC4)cc3)c2n1 [Compound 133, 5-(4-cyclopropyl-6-methoxy-pyrimidin-5-yl)-3-[[4-[1-(oxetan-3-yl)-4-(trifluoromethyl)imidazol-2-yl]phenyl]methyl]-1H-pyrazolo[4,3-d]pyrimidine]
- IC50 [1, 5]: < 0.1 µM
- IC50 [2]: ≥ 10 µM
- IC50 [3]: 0.1 to 0.25 µM
- IC50 [4]: 0.03 to 0.1 µM

Compound: Cn1cc(C(F)(F)F)nc1-c1ccc(Cc2n[nH]c3cnc(-c4c(OC(F)F)ncnc4C4CC4)nc23)cc1 [Compound 185, 5-[4-cyclopropyl-6-(difluoromethoxy)pyrimidin-5-yl]-3-[[4-[1-methyl-4-(trifluoromethyl)imidazol-2-yl]phenyl]methyl]-1H-pyrazolo[4,3-d]pyrimidine]
- IC50 [1, 5]: < 0.1 µM
- IC50 [2]: ≥ 10 µM
- IC50 [3]: < 0.1 µM
- IC50 [4]: < 0.03 µM

Compound: COc1ncnc(OC)c1-c1ncc2[nH]nc(Cc3ccc(-c4nc(C(F)(F)F)cn4C)cc3)c2n1 [Compound 144]
- IC50 [1, 5]: 0.1 to 0.25 µM
- IC50 [2]: ≥ 10 µM
- IC50 [3]: 0.1 to 0.25 µM
- IC50 [4]: < 0.03 µM

Compound: COc1ncnc(C2CC2)c1-c1ncc2[nH]nc(Cc3ccc(-c4nc(C#N)cn4C)cc3)c2n1 [Compound 45, 2-[4-[[5-(4-cyclopropyl-6-methoxy-pyrimidin-5-yl)-1H-pyrazolo[4,3-d]pyrimidin-3-yl]methyl]phenyl]-1-methyl-imidazole-4-carbonitrile]
- IC50 [1, 5]: 0.25 to 10 µM
- IC50 [2]: ≥ 10 µM
- IC50 [3]: 0.25 to 10 µM
- IC50 [4]: 0.1 to 10 µM

Compound: [2H]C([2H])([2H])n1nc(Cc2ccc(-c3nc(C(F)(F)F)cn3C)cc2)c2nc(-c3c(OC)ncnc3C3CC3)ncc21 [Compound 143, 5-(4-cyclopropyl-6-methoxy-pyrimidin-5-yl)-3-[[4-[1-methyl-4-(trifluoromethyl)imidazol-2-yl]phenyl]methyl]-1-(trideuteriomethyl)pyrazolo[4,3-d]pyrimidine]
- IC50 [1, 5]: < 0.1 µM
- IC50 [2]: ≥ 10 µM
- IC50 [3]: < 0.1 µM
- IC50 [4]: < 0.03 µM

Compound: CCn1cc(C(F)(F)F)nc1-c1ccc(Cc2nn(C)c3cnc(-c4c(OC)ncnc4C4CC4)nc23)cc1 [Compound 106, 5-(4-cyclopropyl-6-methoxypyrimidin-5-yl)-3-(4-(1-ethyl-4-(trifluoromethyl)-1H-imidazol-2-yl)benzyl)-1-methyl-1H-pyrazolo[4,3-d]pyrimidine]
- IC50 [1, 5]: < 0.1 µM
- IC50 [2]: ≥ 10 µM
- IC50 [3]: < 0.1 µM
- IC50 [4]: < 0.03 µM

Compound: COc1ncnc(C#N)c1-c1ncc2[nH]cc(Cc3ccc(-c4nc(C(F)(F)F)cn4C)cc3)c2n1 [Compound 134]
- IC50 [1, 5]: 0.1 to 0.25 µM
- IC50 [2]: ≥ 10 µM
- IC50 [3]: 0.25 to 10 µM
- IC50 [4]: 0.03 to 0.1 µM

Compound: CCn1cc(C(F)(F)F)nc1-c1ccc(C(O)c2c[nH]c3cnc(-c4c(OC)ncnc4C4CC4)nc23)cc1 (stereo not shown) [Compound 33]
- IC50 [1, 5]: 0.25 to 10 µM
- IC50 [2]: ≥ 10 µM
- IC50 [3]: 0.25 to 10 µM
- IC50 [4]: 0.1 to 10 µM

Compound: Cn1cc(C(F)(F)F)nc1-c1ccc(Cc2c[nH]c3cnc(-c4cccnc4N4CCC4)nc23)cc1 [Compound 67, 2-[2-(azetidin-1-yl)-3-pyridyl]-7-[[4-[1-methyl-4-(trifluoromethyl)imidazol-2-yl]phenyl]methyl]-5H-pyrrolo[3,2-d]pyrimidine]
- IC50 [1, 5]: 0.25 to 10 µM
- IC50 [2]: ≥ 10 µM
- IC50 [3]: 0.25 to 10 µM
- IC50 [4]: 0.1 to 10 µM

Compound: COc1ncnc(C2CC2)c1-c1ncc2c(n1)c(Cc1ccc(-n3nc(C#N)cc3C)cc1)cn2C [Compound 107, 1-[4-[[2-(4-cyclopropyl-6-methoxy-pyrimidin-5-yl)-5-methyl-pyrrolo[3,2-d]pyrimidin-7-yl]methyl]phenyl]-5-methyl-pyrazole-3-carbonitrile]
- IC50 [1, 5]: < 0.1 µM
- IC50 [2]: ≥ 10 µM
- IC50 [3]: < 0.1 µM
- IC50 [4]: 0.03 to 0.1 µM

Compound: CC(C)c1ccccc1-c1cc2c(Nc3ccc(-c4nc(C(F)(F)F)cn4C)cc3)c[nH]c2cn1 [Compound 17]
- IC50 [1, 5]: 0.25 to 10 µM
- IC50 [2]: 0.25 to 10 µM
- IC50 [3]: < 0.1 µM
- IC50 [4]: 0.1 to 10 µM

Compound: COc1ncnc(C2CC2)c1-c1ncc2nn(C(C)=O)c(Cc3ccc(-c4nc(C(F)(F)F)cn4C)cc3)c2n1 [Compound 101, 1-(5-(4-cyclopropyl-6-methoxypyrimidin-5-yl)-3-(4-(1-methyl-4-(trifluoromethyl)-1H-imidazol-2-yl)benzyl)-2H-pyrazolo[4,3-d]pyrimidin-2-yl)ethan-1-one]
- IC50 ([1]; Homo sapiens, viability): < 0.1 µM
- IC50 [2]: ≥ 10 µM
- IC50 [3]: < 0.1 µM
- IC50 [4]: 0.03 to 0.1 µM

Compound: COC(c1ccc(-c2nc(C(F)(F)F)cn2C)cc1)c1c[nH]c2cnc(-c3ccccc3C(C)C)nc12 (stereo not shown) [Compound 73, 2-(2-isopropylphenyl)-7-[methoxy-[4-[1-methyl-4-(trifluoromethyl)imidazol-2-yl]phenyl]methyl]-5H-pyrrolo[3,2-d]pyrimidine]
- IC50 [1, 5]: 0.25 to 10 µM
- IC50 [2]: 0.25 to 10 µM
- IC50 [3]: 0.1 to 0.25 µM
- IC50 [4]: 0.1 to 10 µM

Compound: [2H]C([2H])([2H])n1cc(C(F)(F)F)nc1-c1ccc(Cc2c[nH]c3cnc(-c4c(OC)ncnc4C4CC4)nc23)cc1 [Compound 135, 2-(4-cyclopropyl-6-methoxy-pyrimidin-5-yl)-7-[[4-[1-(trideuteriomethyl)-4-(trifluoromethyl)imidazol-2-yl]phenyl]methyl]-5H-pyrrolo[3,2-d]pyrimidine]
- IC50 [1, 5]: < 0.1 µM
- IC50 [2]: ≥ 10 µM
- IC50 [3]: < 0.1 µM
- IC50 [4]: < 0.03 µM

Compound: COc1ncnc(C2CC2)c1-c1nc(OC)c2[nH]cc(Cc3ccc(-c4nc(C(F)(F)F)cn4C)cc3)c2n1 [Compound 160]
- IC50 [1, 5]: 0.1 to 0.25 µM
- IC50 [2]: 0.25 to 10 µM
- IC50 [3]: 0.25 to 10 µM
- IC50 [4]: 0.1 to 10 µM

Compound: Cn1cc(C(F)(F)F)nc1-c1ccc(Cc2c[nH]c3cnc(-c4c(C(F)(F)F)cnn4C)nc23)cc1 [Compound 179, 7-[[4-[1-methyl-4-(trifluoromethyl)imidazol-2-yl]phenyl]methyl]-2-[2-methyl-4-(trifluoromethyl)pyrazol-3-yl]-5H-pyrrolo[3,2-d]pyrimidine]
- IC50 [1, 5]: < 0.1 µM
- IC50 [2]: 0.25 to 10 µM
- IC50 [3]: < 0.1 µM

Compound: COc1ncnc(C2CC2)c1-c1ncc2[nH]nc(Cc3ccc(-c4nc(C(F)(F)F)cn4C)cc3)c2n1 [Compound 5, 5-(4-cyclopropyl-6-methoxy-pyrimidin-5-yl)-3-[[4-[1-methyl-4-(trifluoromethyl)imidazol-2-yl]phenyl]methyl]-1H-pyrazolo[4,3-d]pyrimidine]
- IC50 [1, 5]: < 0.1 µM
- IC50 [3]: < 0.1 µM
- IC50 [4]: < 0.03 µM

Compound: COc1ncnc(C2CC2)c1-c1ncc2c(n1)c(Cc1ccc(-c3nc(C(F)(F)F)cn3C)cc1)nn2C [Compound 26, 5-(4-cyclopropyl-6-methoxy-pyrimidin-5-yl)-1-methyl-3-[[4-[1-methyl-4-(trifluoromethyl)imidazol-2-yl]phenyl]methyl]pyrazolo[4,3-d]pyrimidine]
- IC50 [1, 5]: < 0.1 µM
- IC50 [2]: ≥ 10 µM
- IC50 [3]: < 0.1 µM

Compound: COc1ncnc(C2CC2)c1-c1ncc2[nH]cc([C@@](C)(O)c3ccc(-c4nc(C(F)(F)F)cn4C)cc3)c2n1 (single isomer, unassigned) [Compound 76]
- IC50 ([1]; viability): 0.25 to 10 µM
- IC50 [3]: 0.1 to 0.25 µM
- IC50 [4]: 0.1 to 10 µM

Compound: COc1ncnc(C2CC2)c1-c1ncc2[nH]cc(Cc3ccc(-c4nc(C(F)(F)F)cn4C(C)C)cc3)c2n1 [Compound 54, 2-(4-cyclopropyl-6-methoxy-pyrimidin-5-yl)-7-[[4-[1-isopropyl-4-(trifluoromethyl)imidazol-2-yl]phenyl]methyl]-5H-pyrrolo[3,2-d]pyrimidine]
- IC50 [1, 5]: < 0.1 µM
- IC50 [3]: < 0.1 µM
- IC50 [4]: < 0.03 µM
